Reference: ChEMBL document CHEMBL4840313, “Bioisosteric replacements of the indole moiety for the development of a potent and selective PI3Kδ inhibitor: Design, synthesis and biological evaluation” (Eur J Med Chem, 2021)
Blank lines part the entries; values can stand above or below the compound they belong to.

Assays:
[1] = target: T1, Phosphatidylinositol 4,5-bisphosphate 3-kinase catalytic subunit delta isoform (Homo sapiens, UniProt O00329); assay: Inhibition of PI3Kdelta (unknown origin) using PIP2 as substrate in presence of ATP measured after 60 mins by ADP-Glo assay
T1 sequence (O00329 whole entry): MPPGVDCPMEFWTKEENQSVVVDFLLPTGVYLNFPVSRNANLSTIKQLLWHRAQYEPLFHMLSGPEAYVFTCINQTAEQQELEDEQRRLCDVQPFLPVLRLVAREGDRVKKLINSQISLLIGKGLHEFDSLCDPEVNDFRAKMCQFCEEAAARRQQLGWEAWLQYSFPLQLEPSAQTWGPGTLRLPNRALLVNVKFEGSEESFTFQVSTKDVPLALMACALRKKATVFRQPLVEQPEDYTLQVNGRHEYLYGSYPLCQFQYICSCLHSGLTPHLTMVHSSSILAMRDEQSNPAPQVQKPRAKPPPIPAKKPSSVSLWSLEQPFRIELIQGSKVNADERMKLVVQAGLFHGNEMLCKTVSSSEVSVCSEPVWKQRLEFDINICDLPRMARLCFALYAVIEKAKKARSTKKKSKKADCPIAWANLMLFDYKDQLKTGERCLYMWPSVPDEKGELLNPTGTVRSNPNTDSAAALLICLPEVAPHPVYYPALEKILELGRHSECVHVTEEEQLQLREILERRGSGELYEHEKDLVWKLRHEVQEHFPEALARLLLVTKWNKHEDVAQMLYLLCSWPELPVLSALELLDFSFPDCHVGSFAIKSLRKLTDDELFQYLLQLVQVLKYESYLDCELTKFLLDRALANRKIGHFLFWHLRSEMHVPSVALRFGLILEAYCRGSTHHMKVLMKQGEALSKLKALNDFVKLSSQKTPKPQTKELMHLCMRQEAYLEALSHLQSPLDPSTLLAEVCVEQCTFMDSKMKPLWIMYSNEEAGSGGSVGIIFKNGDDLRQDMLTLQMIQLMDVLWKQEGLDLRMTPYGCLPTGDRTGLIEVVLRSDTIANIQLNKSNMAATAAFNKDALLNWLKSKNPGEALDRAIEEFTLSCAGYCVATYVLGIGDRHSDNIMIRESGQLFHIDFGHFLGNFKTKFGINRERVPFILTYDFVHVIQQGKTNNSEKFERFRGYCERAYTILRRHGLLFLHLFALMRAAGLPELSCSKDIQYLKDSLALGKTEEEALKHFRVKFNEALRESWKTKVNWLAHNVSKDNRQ

[2] = Induction of cell cycle arrest in human MOLM16 cells assessed as accumulation at S phase at 2 uM incubated for 24 hrs by propidium iodide /RNase staining based flow cytometry(Rvb =31.8 %); type: functional, MOLM-16
[3] = Induction of apoptosis in human MOLM16 cells assessed as viable cells at 1 uM incubated for 48 hrs by Annexin V and propidium iodide Staining based assay (reference value: 76.3 %); type: functional, MOLM-16; settings: read-out: Activity
[4] = Induction of cell cycle arrest in human MOLM16 cells assessed as accumulation at S phase at 5 uM incubated for 24 hrs by propidium iodide /RNase staining based flow cytometry(Rvb =31.8 %); type: functional, MOLM-16
[5] = Induction of cell cycle arrest in human MOLM16 cells assessed as accumulation at subG1 phase at 2 uM incubated for 24 hrs by propidium iodide /RNase staining based flow cytometry(Rvb =4.02 %); type: functional, MOLM-16
[6] = Induction of cell cycle arrest in human MOLM16 cells assessed as accumulation at G2 phase at 2 uM incubated for 24 hrs by propidium iodide /RNase staining based flow cytometry(Rvb =14.7 %); type: functional, MOLM-16
[7] = Induction of apoptosis in human MOLM16 cells assessed as early apoptotic cells at 5 uM incubated for 48 hrs by Annexin V and propidium iodide Staining based assay (reference value: 16.4 %); type: functional, MOLM-16
[8] = Induction of cell cycle arrest in human MOLM16 cells assessed as accumulation at G2 phase at 5 uM incubated for 24 hrs by propidium iodide /RNase staining based flow cytometry(Rvb =14.7 %); type: functional, MOLM-16
[9] = Induction of apoptosis in human MOLM16 cells assessed as necrotic cells at 5 uM incubated for 48 hrs by Annexin V and propidium iodide Staining based assay (reference value: 0.44 %); type: functional, MOLM-16
[10] = Induction of apoptosis in human MOLM16 cells assessed as late apoptotic cells at 5 uM incubated for 48 hrs by Annexin V and propidium iodide Staining based assay (reference value: 6.77 %); type: functional, MOLM-16
[11] = Induction of cell cycle arrest in human MOLM16 cells assessed as accumulation at G1 phase at 5 uM incubated for 24 hrs by propidium iodide /RNase staining based flow cytometry(Rvb =46.8 %); type: functional, MOLM-16
[12] = Induction of cell cycle arrest in human MOLM16 cells assessed as accumulation at subG1 phase at 1 uM incubated for 24 hrs by propidium iodide /RNase staining based flow cytometry(Rvb =4.02 %); type: functional, MOLM-16
[13] = Induction of cell cycle arrest in human MOLM16 cells assessed as accumulation at G1 phase at 1 uM incubated for 24 hrs by propidium iodide /RNase staining based flow cytometry(Rvb =46.8 %); type: functional, MOLM-16
[14] = Induction of cell cycle arrest in human MOLM16 cells assessed as accumulation at G2 phase at 1 uM incubated for 24 hrs by propidium iodide /RNase staining based flow cytometry(Rvb =14.7 %); type: functional, MOLM-16
[15] = Induction of apoptosis in human MOLM16 cells assessed as necrotic cells at 2 uM incubated for 48 hrs by Annexin V and propidium iodide Staining based assay (reference value: 0.44 %); type: functional, MOLM-16
[16] = Induction of cell cycle arrest in human MOLM16 cells assessed as accumulation at G1 phase at 2 uM incubated for 24 hrs by propidium iodide /RNase staining based flow cytometry(Rvb =46.8 %); type: functional, MOLM-16
[17] = Induction of cell cycle arrest in human MOLM16 cells assessed as accumulation at S phase at 1 uM incubated for 24 hrs by propidium iodide /RNase staining based flow cytometry(Rvb =31.8 %); type: functional, MOLM-16
[18] = Induction of cell cycle arrest in human MOLM16 cells assessed as accumulation at subG1 phase at 5 uM incubated for 24 hrs by propidium iodide /RNase staining based flow cytometry(Rvb =4.02 %); type: functional, MOLM-16
[19] = Induction of apoptosis in human MOLM16 cells assessed as viable cells at 5 uM incubated for 48 hrs by Annexin V and propidium iodide Staining based assay (reference value: 76.3 %); type: functional, MOLM-16; settings: read-out: Activity
[20] = Induction of apoptosis in human MOLM16 cells assessed as viable cells at 2 uM incubated for 48 hrs by Annexin V and propidium iodide Staining based assay (reference value: 76.3 %); type: functional, MOLM-16; settings: read-out: Activity
[21] = Induction of apoptosis in human MOLM16 cells assessed as late apoptotic cells at 2 uM incubated for 48 hrs by Annexin V and propidium iodide Staining based assay (reference value: 6.77 %); type: functional, MOLM-16
[22] = Induction of apoptosis in human MOLM16 cells assessed as late apoptotic cells at 1 uM incubated for 48 hrs by Annexin V and propidium iodide Staining based assay (reference value: 6.77 %); type: functional, MOLM-16
[23] = Induction of apoptosis in human MOLM16 cells assessed as necrotic cells at 1 uM incubated for 48 hrs by Annexin V and propidium iodide Staining based assay (reference value: 0.44 %); type: functional, MOLM-16
[24] = Induction of apoptosis in human MOLM16 cells assessed as early apoptotic cells at 1 uM incubated for 48 hrs by Annexin V and propidium iodide Staining based assay (reference value: 16.4 %); type: functional, MOLM-16
[25] = Induction of apoptosis in human MOLM16 cells assessed as early apoptotic cells at 2 uM incubated for 48 hrs by Annexin V and propidium iodide Staining based assay (reference value: 16.4 %); type: functional, MOLM-16
[26] = target: Phosphatidylinositol 4,5-bisphosphate 3-kinase catalytic subunit alpha isoform (Homo sapiens, UniProt P42336); assay: Inhibition of PI3Kalpha (unknown origin) using PIP2 as substrate in presence of ATP measured after 60 mins by ADP-Glo assay
Phosphatidylinositol 4,5-bisphosphate 3-kinase catalytic subunit alpha isoform, sequence (P42336 whole entry, canonical isoform): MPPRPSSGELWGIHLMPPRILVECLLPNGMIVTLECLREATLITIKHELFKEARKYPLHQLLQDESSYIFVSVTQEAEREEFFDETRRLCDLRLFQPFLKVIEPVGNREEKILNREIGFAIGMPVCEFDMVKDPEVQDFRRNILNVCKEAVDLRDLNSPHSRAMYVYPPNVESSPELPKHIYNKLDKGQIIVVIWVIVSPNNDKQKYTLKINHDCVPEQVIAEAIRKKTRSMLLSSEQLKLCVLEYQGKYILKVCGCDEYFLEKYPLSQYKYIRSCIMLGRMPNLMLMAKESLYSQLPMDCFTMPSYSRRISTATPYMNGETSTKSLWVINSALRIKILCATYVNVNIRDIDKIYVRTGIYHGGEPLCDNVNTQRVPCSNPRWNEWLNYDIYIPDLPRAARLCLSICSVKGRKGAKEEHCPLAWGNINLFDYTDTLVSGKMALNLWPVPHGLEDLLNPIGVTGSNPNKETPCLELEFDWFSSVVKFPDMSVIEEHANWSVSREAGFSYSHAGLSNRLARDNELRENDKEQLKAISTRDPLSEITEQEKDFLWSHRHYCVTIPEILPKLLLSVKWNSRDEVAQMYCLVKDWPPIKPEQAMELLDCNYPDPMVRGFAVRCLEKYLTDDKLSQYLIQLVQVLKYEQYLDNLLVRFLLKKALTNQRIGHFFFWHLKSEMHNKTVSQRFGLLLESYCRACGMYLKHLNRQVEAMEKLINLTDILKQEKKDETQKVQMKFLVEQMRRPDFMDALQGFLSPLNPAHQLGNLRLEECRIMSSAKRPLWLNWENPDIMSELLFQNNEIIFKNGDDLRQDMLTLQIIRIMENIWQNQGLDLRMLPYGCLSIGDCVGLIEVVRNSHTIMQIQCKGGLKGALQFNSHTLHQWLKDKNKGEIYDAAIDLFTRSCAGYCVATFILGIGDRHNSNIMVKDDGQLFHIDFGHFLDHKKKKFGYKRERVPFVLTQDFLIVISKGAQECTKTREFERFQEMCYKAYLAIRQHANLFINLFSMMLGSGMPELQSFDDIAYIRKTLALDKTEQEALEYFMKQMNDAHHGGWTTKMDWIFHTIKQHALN

[27] = target: Phosphatidylinositol 4,5-bisphosphate 3-kinase catalytic subunit beta isoform (Homo sapiens, UniProt P42338); assay: Inhibition of PI3Kbeta (unknown origin) using PIP2 as substrate in presence of ATP measured after 60 mins by ADP-Glo assay
Phosphatidylinositol 4,5-bisphosphate 3-kinase catalytic subunit beta isoform, sequence (P42338 whole entry, canonical isoform): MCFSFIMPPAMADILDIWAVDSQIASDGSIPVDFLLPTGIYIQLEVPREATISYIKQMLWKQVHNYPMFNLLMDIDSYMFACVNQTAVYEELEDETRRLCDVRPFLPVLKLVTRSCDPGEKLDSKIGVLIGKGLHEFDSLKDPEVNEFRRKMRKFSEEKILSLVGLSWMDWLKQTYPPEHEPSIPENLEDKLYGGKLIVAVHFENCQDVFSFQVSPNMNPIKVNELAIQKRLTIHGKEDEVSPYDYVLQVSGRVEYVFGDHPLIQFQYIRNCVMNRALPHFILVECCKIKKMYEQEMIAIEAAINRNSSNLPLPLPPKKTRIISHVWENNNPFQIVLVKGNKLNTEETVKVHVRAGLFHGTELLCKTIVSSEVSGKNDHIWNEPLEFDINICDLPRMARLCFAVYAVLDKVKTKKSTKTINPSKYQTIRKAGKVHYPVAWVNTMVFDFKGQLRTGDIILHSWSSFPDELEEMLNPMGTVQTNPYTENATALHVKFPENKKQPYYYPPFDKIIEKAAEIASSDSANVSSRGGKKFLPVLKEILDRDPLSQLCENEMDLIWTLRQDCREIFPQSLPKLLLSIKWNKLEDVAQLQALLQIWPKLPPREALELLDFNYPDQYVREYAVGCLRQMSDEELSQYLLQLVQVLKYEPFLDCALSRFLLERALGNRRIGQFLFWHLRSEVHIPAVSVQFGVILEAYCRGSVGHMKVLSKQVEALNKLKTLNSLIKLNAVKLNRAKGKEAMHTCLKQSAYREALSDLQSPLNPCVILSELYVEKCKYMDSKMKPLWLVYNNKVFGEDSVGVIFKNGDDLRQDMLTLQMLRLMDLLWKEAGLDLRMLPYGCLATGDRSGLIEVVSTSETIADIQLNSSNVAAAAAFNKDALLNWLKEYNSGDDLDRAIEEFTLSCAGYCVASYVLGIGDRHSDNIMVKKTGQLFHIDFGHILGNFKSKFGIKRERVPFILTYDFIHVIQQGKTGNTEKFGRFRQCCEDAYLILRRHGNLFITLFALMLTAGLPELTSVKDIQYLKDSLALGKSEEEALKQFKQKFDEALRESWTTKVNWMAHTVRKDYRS

[28] = target: Phosphatidylinositol 4,5-bisphosphate 3-kinase catalytic subunit gamma isoform (Homo sapiens, UniProt P48736); assay: Inhibition of PI3Kgamma (unknown origin) using PIP2 as substrate in presence of ATP measured after 60 mins by ADP-Glo assay
Phosphatidylinositol 4,5-bisphosphate 3-kinase catalytic subunit gamma isoform, sequence (P48736 whole entry, canonical isoform): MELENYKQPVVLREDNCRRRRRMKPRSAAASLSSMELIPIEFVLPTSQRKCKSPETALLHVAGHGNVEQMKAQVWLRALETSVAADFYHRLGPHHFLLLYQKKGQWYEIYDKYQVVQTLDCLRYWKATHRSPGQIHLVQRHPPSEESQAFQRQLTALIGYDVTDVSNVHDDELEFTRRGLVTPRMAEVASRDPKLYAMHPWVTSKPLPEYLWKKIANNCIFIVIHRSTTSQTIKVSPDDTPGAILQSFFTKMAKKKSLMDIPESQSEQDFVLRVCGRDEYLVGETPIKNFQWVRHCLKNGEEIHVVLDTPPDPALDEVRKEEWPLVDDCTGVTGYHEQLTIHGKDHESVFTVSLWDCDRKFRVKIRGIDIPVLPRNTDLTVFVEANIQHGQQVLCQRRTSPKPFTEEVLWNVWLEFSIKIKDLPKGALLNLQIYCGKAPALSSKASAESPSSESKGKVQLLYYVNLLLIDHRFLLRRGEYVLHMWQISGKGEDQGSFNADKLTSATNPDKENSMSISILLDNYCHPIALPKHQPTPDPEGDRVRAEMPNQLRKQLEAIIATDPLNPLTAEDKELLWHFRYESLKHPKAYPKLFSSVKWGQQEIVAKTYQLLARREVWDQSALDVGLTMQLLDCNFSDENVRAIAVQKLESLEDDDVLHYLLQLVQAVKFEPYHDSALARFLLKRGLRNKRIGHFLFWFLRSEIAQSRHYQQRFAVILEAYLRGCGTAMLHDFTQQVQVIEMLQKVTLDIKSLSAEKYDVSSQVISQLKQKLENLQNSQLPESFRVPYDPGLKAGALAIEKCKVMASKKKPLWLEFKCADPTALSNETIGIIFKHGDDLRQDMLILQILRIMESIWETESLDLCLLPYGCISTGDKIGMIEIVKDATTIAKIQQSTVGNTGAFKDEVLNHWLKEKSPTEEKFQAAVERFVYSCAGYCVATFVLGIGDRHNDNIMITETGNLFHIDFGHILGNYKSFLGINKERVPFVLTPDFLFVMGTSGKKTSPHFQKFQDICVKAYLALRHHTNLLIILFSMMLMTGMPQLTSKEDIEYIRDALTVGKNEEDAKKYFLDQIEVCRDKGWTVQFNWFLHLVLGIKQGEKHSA

Compound: O=S(=O)(Nc1cc(-c2ccc3ocnc3c2)cnc1Cl)c1ccccc1
IC50 [1]: 37 nM

Compound: O=S(=O)(Nc1cc(-c2ccc3sccc3c2)cnc1Cl)c1ccccc1
IC50 [1]: 859 nM

Compound: O=S(=O)(Nc1cc(-c2cc3cn[nH]c3cn2)cnc1Cl)c1ccccc1
IC50 [1]: 527 nM

Compound: O=S(=O)(Nc1cc(-c2ccc3[nH]ccc3c2)cnc1Cl)c1ccccc1
IC50 [1]: 334 nM

Compound: CC[C@H](Nc1ncnc2[nH]cnc12)c1nc2cccc(F)c2c(=O)n1-c1ccccc1 [IDELALISIB]
Activity [2]: 32.9%
viability at 1 µM [3]: 77%
Activity [4]: 32.8%
Activity [5]: 5.71%
Activity [6]: 12.4%
Activity [7]: 14.8%
Activity [8]: 13.6%
Activity [9]: 1.49%
Activity [10]: 9.19%
Activity [11]: 49.6%
Activity [12]: 3.44%
Activity [13]: 47.9%
Activity [14]: 13.9%
Activity [15]: 0.5%
Activity [16]: 48.4%
Activity [17]: 31.7%
Activity [18]: 2.6%
viability at 5 µM [19]: 74.6%
viability at 2 µM [20]: 73.2%
Activity [21]: 10.1%
Activity [22]: 7.95%
Activity [23]: 1.14%
Activity [24]: 13.9%
Activity [25]: 18.2%

Compound: O=S(=O)(Nc1cc(-c2ccc3scnc3c2)cnc1Cl)c1ccccc1
IC50 [1]: 604 nM

Compound: O=S(=O)(Nc1cc(-c2ccc3[nH]ncc3n2)cnc1Cl)c1ccccc1
IC50 [1]: 294 nM

Compound: O=S(=O)(Nc1cc(-c2ccc3[nH]ccc3n2)cnc1Cl)c1ccccc1
IC50 [1]: 3060 nM

Compound: O=S(=O)(Nc1cc(-c2cnc3[nH]cnc3c2)cnc1Cl)c1ccccc1
IC50 [1]: 16 nM
IC50 [26]: 28 nM
IC50 [27]: 26 nM
IC50 [28]: 21 nM

Other lines, results leading:

IC50 [1]: 17 nM
Compound: O=S(=O)(Nc1cc(-c2ccc3occc3c2)cnc1Cl)c1ccccc1

IC50 [1]: 209 nM
Compound: O=S(=O)(Nc1cc(-c2cnc3occc3c2)cnc1Cl)c1ccccc1

IC50 [1]: 28 nM
Compound: O=S(=O)(Nc1cc(-c2ccc3[nH]cnc3c2)cnc1Cl)c1ccccc1

IC50 [1]: 1310 nM
Compound: O=S(=O)(Nc1cc(-c2cc3cc[nH]c3cn2)cnc1Cl)c1ccccc1

IC50 [1]: 15 nM
Compound: O=S(=O)(Nc1cc(-c2ccc3[nH]nnc3c2)cnc1Cl)c1ccccc1

IC50 [1]: 123 nM
Compound: O=S(=O)(Nc1cc(-c2cnc3c(c2)CCN3)cnc1Cl)c1ccccc1

IC50 [1]: 204 nM
Compound: O=S(=O)(Nc1cc(-c2cnc3scnc3c2)cnc1Cl)c1ccccc1

IC50 [1]: 36 nM
Compound: O=S(=O)(Nc1cc(-c2ccc3[nH]ncc3c2)cnc1Cl)c1ccccc1

IC50 [1]: 49 nM
IC50 [26]: 59 nM
IC50 [27]: 80 nM
IC50 [28]: 57 nM
Compound: O=S(=O)(Nc1cc(-c2cnc3[nH]ccc3n2)cnc1Cl)c1ccccc1

IC50 [1]: 492 nM
Compound: O=S(=O)(Nc1cc(-c2ccc3c(c2)CCN3)cnc1Cl)c1ccccc1
